Reference: ChEMBL document CHEMBL2086228, “Radiosynthesis and in vivo tumor uptake of 2-deoxy-2-[(18)F]fluoro-myo-inositol” (Bioorg Med Chem Lett, 2012)

Legend:
Urinary bladder = assay: Drug uptake in bladder of athymic nude BALB/c mouse xenografted with human MDA-MB-231 cells at 3 to 3.7 MBq, iv at 30 to 60 mins by PET scanning analysis; format: ADME, organism-based; conditions: in vivo
Heart = assay: Drug uptake in heart of athymic nude BALB/c mouse xenografted with human MDA-MB-231 cells at 3 to 3.7 MBq, iv at 30 to 60 mins by PET scanning analysis; format: ADME, organism-based; conditions: in vivo
[1] = Drug uptake in tumor of human MDA-MB-231 cells xenografted athymic nude BALB/c mouse at 3 to 3.7 MBq, iv up to 10 mins by PET scanning analysis; format: ADME, organism-based, Neoplasm; conditions: in vivo
[2] = Drug uptake in tumor of human MDA-MB-231 cells xenografted athymic nude BALB/c mouse at 3 to 3.7 MBq, iv up to 60 mins by PET scanning analysis; format: ADME, organism-based, Neoplasm; conditions: in vivo, 1 h
Kidney = assay: Drug uptake in kidney of athymic nude BALB/c mouse xenografted with human MDA-MB-231 cells at 3 to 3.7 MBq, iv up to 60 mins by PET scanning analysis; format: ADME, organism-based; conditions: in vivo, 1 h
Nucleic Acid = assay: Ratio of drug level in liver to blood in athymic nude BALB/c mouse xenografted with human MDA-MB-231 cells at 3 to 3.7 MBq, iv after 60 mins by gamma counting; format: ADME, organism-based; conditions: other tissue, 1 h

Row | Drug uptake (Urinary bladder) | Drug uptake (Heart) | Drug uptake [1] | Drug uptake [2] | Drug uptake (Kidney) | Ratio (Nucleic Acid) | Compound
1 | Active | Active | Active | Active | Active | 1.7 | O[C@@H]1[C@@H](O)[C@H](O)[C@H]([18F])[C@H](O)[C@H]1O
2 |  |  | Active | Active |  | 1.5 | O[C@@H]1[C@@H](O)[C@H](O)[C@@H]([18F])[C@H](O)[C@H]1O
